The results in this text go back to paper PMC4448982, “LP-925219 maximizes urinary glucose excretion in mice by inhibiting both renal SGLT1 and SGLT2” (Pharmacology Research & Perspectives, 2015).

One experiment concerns the target T1, renal SGLT1 and SGLT2 (Mus musculus, UniProt Q8C3K6).
T1 construct: from tissue; host or cells: kidney of living WT, SGLT1 KO, SGLT2 KO and DKO mice (C57BL/6J-129 SvEv hybrid)
T1 sequence (Q8C3K6 1-665): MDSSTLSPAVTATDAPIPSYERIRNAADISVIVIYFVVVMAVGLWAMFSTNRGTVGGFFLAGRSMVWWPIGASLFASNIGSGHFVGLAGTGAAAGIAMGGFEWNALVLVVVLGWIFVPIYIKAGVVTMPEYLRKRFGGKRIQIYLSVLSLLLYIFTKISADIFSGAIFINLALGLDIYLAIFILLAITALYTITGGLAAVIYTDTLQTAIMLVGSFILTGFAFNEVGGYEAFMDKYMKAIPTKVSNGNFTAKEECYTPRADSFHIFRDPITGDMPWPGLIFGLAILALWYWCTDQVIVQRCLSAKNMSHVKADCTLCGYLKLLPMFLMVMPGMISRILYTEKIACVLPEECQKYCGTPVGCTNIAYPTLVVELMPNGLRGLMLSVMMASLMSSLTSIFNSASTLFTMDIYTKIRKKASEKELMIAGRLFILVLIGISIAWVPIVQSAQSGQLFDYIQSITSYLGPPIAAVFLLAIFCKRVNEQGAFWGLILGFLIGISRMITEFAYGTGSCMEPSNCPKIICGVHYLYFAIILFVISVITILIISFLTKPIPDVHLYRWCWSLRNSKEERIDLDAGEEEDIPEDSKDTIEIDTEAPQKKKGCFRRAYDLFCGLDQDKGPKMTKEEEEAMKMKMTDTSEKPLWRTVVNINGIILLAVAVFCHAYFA
The experiment can be described thus: Metabolic cage study, 24-h urinary glucose excretion. The following applies: SGLT2 KO mice. The experiment is classed as in vivo. Here is the method: Mice were individually housed in Nalgene Metabolic Cages for Mice (product MTB-0311), and 24-h urine collections were made to determine 24-h UGE, as described previously (Powell et al. [2013a]). Some mice received a single dose of either LP-925219 or vehicle by oral gavage at 8 am immediately prior to initiating collection of 24-h urine samples; in addition, some mice received two doses of either vehicle or 60 mg/kg LP-925219 by oral gavage, with the first dose given at 8 am and the second dose given at 6 pm, nearly midway through the collection of the 24-h urine sample.
Figure 5 UGE values in mice treated with a single dose of LP-925219. After DKO, S2 KO, S1 KO, and WT littermate mice received, by a single oral gavage at 8 am, either vehicle (Veh) or LP-925219 at a dose of (A) 1 mg/kg; (B) 10 mg/kg; or (C) 60 mg/kg, the mice were placed in metabolic cages and their urine was collected over the next 24 h and analyzed for total glucose. N = 5–11 mice/group. UGE < DKO UGE: *P < 0.05, **P < 0.01, ***P < 0.001; LP-925219 UGE > Veh UGE for the same group, ^^^P < 0.001. UGE, urinary glucose excretion.
Figure 6 UGE values in mice treated with two doses of 60 mg/kg LP-925219. DKO, S2 KO, S1 KO, and WT littermate mice received, by oral gavage at 8 am and then again at 6 pm, either vehicle (Veh) or LP-925219 at a dose of 60 mg/kg. The mice were placed in metabolic cages after the first gavage and their urine was collected over the next 24 h and analyzed for total glucose. N = 6–11 mice/group. UGE < DKO UGE, ***P < 0.001; LP-925219 UGE > Veh UGE for the same group, ^^^P < 0.001. UGE, urinary glucose excretion.

Another experiment addresses T2, human SGLT2 (Homo sapiens, UniProt P31639).
T2 sequence (P31639 1-672): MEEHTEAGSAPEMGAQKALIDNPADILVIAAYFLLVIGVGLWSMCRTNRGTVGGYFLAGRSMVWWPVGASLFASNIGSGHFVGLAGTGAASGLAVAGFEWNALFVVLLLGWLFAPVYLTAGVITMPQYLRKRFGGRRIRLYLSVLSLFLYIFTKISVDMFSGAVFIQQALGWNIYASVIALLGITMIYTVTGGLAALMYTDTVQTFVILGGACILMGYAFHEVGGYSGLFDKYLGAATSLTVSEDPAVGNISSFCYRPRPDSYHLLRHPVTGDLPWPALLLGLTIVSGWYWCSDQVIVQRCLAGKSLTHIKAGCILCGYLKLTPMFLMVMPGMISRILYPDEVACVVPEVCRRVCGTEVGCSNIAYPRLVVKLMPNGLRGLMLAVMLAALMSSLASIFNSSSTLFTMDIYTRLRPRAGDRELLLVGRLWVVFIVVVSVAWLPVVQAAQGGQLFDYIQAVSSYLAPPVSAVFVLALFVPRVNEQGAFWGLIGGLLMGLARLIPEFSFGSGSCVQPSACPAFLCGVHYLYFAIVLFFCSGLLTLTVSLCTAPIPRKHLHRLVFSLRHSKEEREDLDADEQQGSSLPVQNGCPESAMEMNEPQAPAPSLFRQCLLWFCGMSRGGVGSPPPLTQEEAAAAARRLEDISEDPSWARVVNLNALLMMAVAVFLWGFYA
The experiment can be described thus: 14C-AMG uptake assay, HEK293 cells expressing human SGLT2. Set-up: expressed in transfected cells. The experiment is classed as cell-based. The following applies: mean ± SD. The text has this:
Methods for generating cell lines expressing mouse, rat, and dog SGLT1 and SGLT2 are published (Powell et al. [2013b], [2014]). Full-length coding sequence of human SGLT1 (NP_000334) and human SGLT2 (NP_003032.1) with an HA-tag at the N-terminus were cloned into the mammalian expression vector pIRESpuro2 (Clontech, Mountain View, CA). HEK293 cells (ATCC, Manassas, VA) were transfected with the pIRESpuro2 vector containing human SGLT1 or SGLT2 and bulk stable cell lines were selected in the presence of 0.5 μg/mL of puromycin.
Cell lines expressing SGLT1 or SGLT2 were plated into poly-D-lysine-coated 384-well plates, and culture overnight in cell growth medium. Cells were washed, and then incubated in uptake buffer ([…], […] KCl, […] CaCl2, […] MgCl2, […] HEPES/Tris, 1 mg/mL of bovine serum albumin, pH7.4) containing [^14C]α-methylglucopyranoside (^14C-AMG), a nonmetabolizable glucose analog specific for sodium-dependent glucose transporters (Wright and Turk [2004]). The inhibition of SGLT1 or SGLT2 was determined by measuring SGLT1/2-mediated ^14C-AMG uptake in the presence of increasing compound concentrations of LP-925219. […] Standard sigmoidal dose–response model curves were fitted, and the IC50 value was computed as the LP-925219 concentration that inhibited the ^14C-AMG uptake by 50% between baseline and maximum uptake.

`COc1ccc(Cc2cc([C@@H]3O[C@H](SC)[C@@H](O)[C@H](O)[C@H]3O)ccc2Cl)cc1` [LP-925219]: the “24-h UGE” value is reported as 80 ± 18 % of maximal on renal SGLT1 and SGLT2 (single oral dose 60 mg/kg, maximal = vehicle-treated DKO); “did not show a significant increase” on renal SGLT1 and SGLT2 (single oral dose 1 or 10 mg/kg, vs vehicle); 89 ± 16 % of maximal on renal SGLT1 and SGLT2 (two oral 60 mg/kg doses (8 am, 6 pm)). This compound registered an IC50 against human SGLT2 of 2.1 ± 0.5 nM.

A word on the IC50: it is the midpoint of a concentration-inhibition curve.
